# Experimental data from paper PMC6193938, “Characterization of a novel AICARFT inhibitor which potently elevates ZMP and has anti-tumor activity in murine models” (Scientific Reports, 2018).
# Legend:
# Experiment in all cases: CEREP protein kinase assay
# Type in all cases: biochemical
# CK2 = target: T1, CK2 (Homo sapiens, UniProt P68400)
# T1 construct: purchased CEREP Panlabs (Eurofins)
# EPHA5 = target: T2, EPHA5 (Homo sapiens, UniProt P54756)
# T2 construct: purchased CEREP Panlabs (Eurofins)
# EPHB2 = target: T3, EPHB2 (Homo sapiens, UniProt P29323)
# T3 construct: purchased CEREP Panlabs (Eurofins)
# T3 sequence (P29323 19-1055): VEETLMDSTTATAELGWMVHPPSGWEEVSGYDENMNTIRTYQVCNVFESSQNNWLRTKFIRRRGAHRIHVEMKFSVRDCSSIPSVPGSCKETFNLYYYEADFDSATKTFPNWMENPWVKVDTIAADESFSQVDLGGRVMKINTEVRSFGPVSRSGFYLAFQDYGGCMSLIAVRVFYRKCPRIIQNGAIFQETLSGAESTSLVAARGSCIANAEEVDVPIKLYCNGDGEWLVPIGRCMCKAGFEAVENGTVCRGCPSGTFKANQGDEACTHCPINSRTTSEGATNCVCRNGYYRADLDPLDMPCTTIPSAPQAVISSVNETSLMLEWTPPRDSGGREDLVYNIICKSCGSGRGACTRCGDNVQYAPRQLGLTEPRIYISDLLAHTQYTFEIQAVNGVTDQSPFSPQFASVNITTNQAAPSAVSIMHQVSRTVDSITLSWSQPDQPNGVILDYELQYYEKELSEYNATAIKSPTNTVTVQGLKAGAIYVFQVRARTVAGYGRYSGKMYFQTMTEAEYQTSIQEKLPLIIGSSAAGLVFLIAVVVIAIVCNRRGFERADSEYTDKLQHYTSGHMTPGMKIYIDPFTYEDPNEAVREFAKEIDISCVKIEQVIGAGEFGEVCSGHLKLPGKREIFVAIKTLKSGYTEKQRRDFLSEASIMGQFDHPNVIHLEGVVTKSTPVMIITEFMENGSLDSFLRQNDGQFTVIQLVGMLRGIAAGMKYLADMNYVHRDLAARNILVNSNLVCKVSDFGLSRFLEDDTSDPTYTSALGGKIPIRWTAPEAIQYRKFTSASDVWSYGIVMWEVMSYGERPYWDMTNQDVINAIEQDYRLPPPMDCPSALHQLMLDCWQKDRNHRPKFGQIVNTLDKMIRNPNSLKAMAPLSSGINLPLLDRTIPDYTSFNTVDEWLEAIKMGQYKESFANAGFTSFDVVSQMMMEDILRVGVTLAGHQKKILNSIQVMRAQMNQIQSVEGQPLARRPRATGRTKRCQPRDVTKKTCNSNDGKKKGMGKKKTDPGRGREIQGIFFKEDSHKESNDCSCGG
# IRAK4 = target: T4, IRAK4 (Homo sapiens, UniProt Q9NWZ3)
# T4 construct: purchased CEREP Panlabs (Eurofins)
# T4 sequence (Q9NWZ3 1-460): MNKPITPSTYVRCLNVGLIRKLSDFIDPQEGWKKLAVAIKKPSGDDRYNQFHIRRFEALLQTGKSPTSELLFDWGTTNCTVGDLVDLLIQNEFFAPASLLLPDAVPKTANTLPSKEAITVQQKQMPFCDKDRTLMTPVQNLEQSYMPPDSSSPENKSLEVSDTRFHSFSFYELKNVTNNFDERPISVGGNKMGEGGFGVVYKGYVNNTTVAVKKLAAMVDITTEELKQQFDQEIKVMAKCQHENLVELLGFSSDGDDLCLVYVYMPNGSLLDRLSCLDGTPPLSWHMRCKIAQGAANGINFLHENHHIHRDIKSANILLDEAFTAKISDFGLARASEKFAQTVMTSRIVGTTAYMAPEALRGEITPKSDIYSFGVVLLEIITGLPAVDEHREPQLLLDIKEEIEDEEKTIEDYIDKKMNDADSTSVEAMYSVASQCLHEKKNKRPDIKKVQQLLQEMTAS
# MAPKAPK5 = target: T5, MAPKAPK5 (Homo sapiens, UniProt Q8IW41)
# T5 construct: purchased CEREP Panlabs (Eurofins)
# T5 sequence (Q8IW41 1-473): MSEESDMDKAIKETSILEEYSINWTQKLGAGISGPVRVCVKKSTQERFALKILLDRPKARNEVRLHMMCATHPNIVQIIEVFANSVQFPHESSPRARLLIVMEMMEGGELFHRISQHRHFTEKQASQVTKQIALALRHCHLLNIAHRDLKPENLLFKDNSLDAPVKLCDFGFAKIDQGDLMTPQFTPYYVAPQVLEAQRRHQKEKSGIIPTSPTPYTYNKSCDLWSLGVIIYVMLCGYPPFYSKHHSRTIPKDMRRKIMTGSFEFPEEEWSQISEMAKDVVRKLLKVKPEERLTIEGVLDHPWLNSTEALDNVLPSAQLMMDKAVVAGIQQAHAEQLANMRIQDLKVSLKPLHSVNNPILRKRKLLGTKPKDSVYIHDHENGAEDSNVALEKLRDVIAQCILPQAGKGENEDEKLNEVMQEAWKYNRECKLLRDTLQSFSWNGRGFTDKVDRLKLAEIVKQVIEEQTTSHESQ
# T2 sequence (P54756 25-1037): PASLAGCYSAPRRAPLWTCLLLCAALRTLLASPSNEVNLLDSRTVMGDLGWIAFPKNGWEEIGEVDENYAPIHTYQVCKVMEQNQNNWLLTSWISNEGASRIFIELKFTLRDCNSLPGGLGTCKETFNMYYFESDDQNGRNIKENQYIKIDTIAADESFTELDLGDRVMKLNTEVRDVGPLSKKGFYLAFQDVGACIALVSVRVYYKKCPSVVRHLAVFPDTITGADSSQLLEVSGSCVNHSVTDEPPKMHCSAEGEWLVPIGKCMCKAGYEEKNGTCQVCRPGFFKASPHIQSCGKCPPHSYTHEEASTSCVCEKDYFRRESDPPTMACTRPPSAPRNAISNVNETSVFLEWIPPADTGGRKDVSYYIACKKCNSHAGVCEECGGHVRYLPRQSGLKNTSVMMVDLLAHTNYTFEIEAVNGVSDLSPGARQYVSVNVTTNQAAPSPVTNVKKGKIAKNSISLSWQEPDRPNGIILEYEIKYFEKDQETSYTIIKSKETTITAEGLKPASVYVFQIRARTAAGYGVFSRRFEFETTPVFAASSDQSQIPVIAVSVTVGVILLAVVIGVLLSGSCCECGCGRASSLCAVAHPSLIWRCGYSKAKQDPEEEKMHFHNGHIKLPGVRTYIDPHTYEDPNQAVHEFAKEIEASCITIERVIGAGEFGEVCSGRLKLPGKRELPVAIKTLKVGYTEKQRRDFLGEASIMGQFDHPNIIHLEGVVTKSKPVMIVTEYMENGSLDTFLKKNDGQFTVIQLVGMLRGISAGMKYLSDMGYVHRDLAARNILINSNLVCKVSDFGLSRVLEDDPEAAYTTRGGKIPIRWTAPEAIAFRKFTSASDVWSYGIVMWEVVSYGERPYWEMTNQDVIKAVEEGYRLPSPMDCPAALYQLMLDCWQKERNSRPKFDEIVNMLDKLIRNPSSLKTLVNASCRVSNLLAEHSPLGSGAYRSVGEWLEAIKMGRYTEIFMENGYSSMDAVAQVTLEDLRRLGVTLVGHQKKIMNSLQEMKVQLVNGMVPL
# T1 sequence (P68400 whole entry): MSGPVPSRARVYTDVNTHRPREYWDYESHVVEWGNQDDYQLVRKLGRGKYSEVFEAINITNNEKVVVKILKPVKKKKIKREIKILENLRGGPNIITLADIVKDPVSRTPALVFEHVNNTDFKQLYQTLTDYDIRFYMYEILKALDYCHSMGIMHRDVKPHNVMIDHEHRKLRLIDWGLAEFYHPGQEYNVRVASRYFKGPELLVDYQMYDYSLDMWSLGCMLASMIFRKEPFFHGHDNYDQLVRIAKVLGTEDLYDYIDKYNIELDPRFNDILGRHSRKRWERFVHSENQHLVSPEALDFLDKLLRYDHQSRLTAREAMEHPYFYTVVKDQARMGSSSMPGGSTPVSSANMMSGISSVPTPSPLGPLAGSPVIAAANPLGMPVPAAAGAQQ
smiles,measurement,setting,value
"O=c1[nH]ccc2cc(F)c(NS(=O)(=O)c3ccc(N4CC[C@@H](O)C4)s3)cc12 [LSN3213128, N-(6-Fluoro-1-oxo-1,2-dihydroisoquinolin-7-yl)-5-[(3R)-3-hydroxypyrrolidin-1-yl]thiophene-2-sulfonamide]",inhibition at 0.2 µM,CK2; @ 0.2 uM,-7.53%
same,inhibition at 2 µM,CK2; @ 2 uM,-0.227%
same,inhibition at 20 µM,CK2; @ 20 uM,1.58%
same,inhibition at 0.2 µM,EPHA5; @ 0.2 uM,3.96%
same,inhibition at 2 µM,EPHA5; @ 2 uM,9.58%
same,inhibition at 20 µM,EPHA5; @ 20 uM,19.4%
same,inhibition at 0.2 µM,EPHB2; @ 0.2 uM,-14.3%
same,inhibition at 2 µM,EPHB2; @ 2 uM,8.96%
same,inhibition at 20 µM,EPHB2; @ 20 uM,12%
same,inhibition at 0.2 µM,IRAK4; @ 0.2 uM,-4.69%
same,inhibition at 2 µM,IRAK4; @ 2 uM,0.428%
same,inhibition at 20 µM,IRAK4; @ 20 uM,-0.827%
same,inhibition at 0.2 µM,MAPKAPK5; @ 0.2 uM,3.51%
same,inhibition at 2 µM,MAPKAPK5; @ 2 uM,13.3%
same,inhibition at 20 µM,MAPKAPK5; @ 20 uM,-3.2%
